The subject of data set [1] is Mus musculus. Description: Anticonvulsant activity against ip dosed CF1 albino mouse seizure model after 4 hrs by 6 Hz psychomotor seizure test. The class given is functional.
Data set [2] deals with Mus musculus. Description: Reduction Li-pilocarpine-induced weight loss in non-protected CF1 albino mouse at 65 mg/kg, ip after 0.5 hrs. Format: functional, organism-based. Also on record: dose 65 mg/kg.
Data set [3] relates to Mus musculus. Description: Anticonvulsant activity in CF1 albino mouse assessed as protection against maximal electroshock-induced seizures at 100 mg/kg, ip after 2 hrs. The class given is functional, organism-based. Also noted: dose 100 mg/kg.
The subject of data set [4] is Mus musculus. In words: Neurotoxicity in CF1 albino mouse seizure model at 100 mg/kg, ip after 1 hrs by rototod test. Format: toxicity, organism-based. Also on record: dose 100 mg/kg, route intraperitoneal. The conditions noted are these: in vivo.
Data set [5] has as its system Mus musculus. Description: Anticonvulsant activity in CF1 albino mouse assessed as protection against pentylenetetrazole-induced seizure at 100 mg/kg, ip after 4 hrs by scMET test. Also noted: dose 100 mg/kg. Format: functional, organism-based.
In data set [6] the test system is Mus musculus. Description: Neurotoxicity in CF1 albino mouse seizure model assessed as time to peak toxic effect at 100 mg/kg, ip after 4 hr by rototod test. Particulars: in vivo. Format: toxicity, organism-based. Also noted: dose 100 mg/kg, route intraperitoneal.
The subject of data set [7] is Mus musculus. In words: Anticonvulsant activity in CF1 albino mouse assessed as protection against maximal electroshock-induced seizures at 100 mg/kg, ip after 1 hrs. Also noted: dose 100 mg/kg. The class given is functional, organism-based.
Data set [8] deals with Mus musculus. Description: Anticonvulsant activity in CF1 albino mouse assessed as protection against pentylenetetrazole-induced seizure at 100 mg/kg, ip after 2 hrs by scMET test. The class given is functional, organism-based. Also on record: dose 100 mg/kg.
Data set [9] has as its system Mus musculus. Description: Anticonvulsant activity in CF1 albino mouse assessed as protection against maximal electroshock-induced seizures at 100 mg/kg, ip after 0.5 hrs. Also noted: dose 100 mg/kg. The class given is functional, organism-based.
The nature of data set [10]: Protective index, ratio of TD50 for CF1 albino mouse neurotoxicity to ED50 for protection against 6 Hz electroshock-induced seizure in CF1 albino mouse. Particulars: in vivo, read-out: Ratio TD50/ED50. The class given is toxicity, organism-based.
The subject of data set [11] is Mus musculus. Description: Anticonvulsant activity in CF1 albino mouse assessed as protection against maximal electroshock-induced seizures at 100 mg/kg, ip after 0.25 hrs. The class given is functional, organism-based. Also on record: dose 100 mg/kg.
The subject of data set [12] is Mus musculus. Description: Neurotoxicity in CF1 albino mouse seizure model at 100 mg/kg, ip after 2 hrs by rototod test. Particulars: in vivo. Also noted: dose 100 mg/kg, route intraperitoneal. Format: toxicity, organism-based.
Data set [13] relates to Mus musculus. Description: Anticonvulsant activity against CF1 albino mouse seizure model assessed as time to peak effect at 100 mg/kg, ip by 6 Hz psychomotor seizure test. Particulars: route intraperitoneal. The class given is functional.
In data set [14] the test system is Mus musculus. In words: Reduction Li-pilocarpine-induced weight loss in protected CF1 albino mouse at 65 mg/kg, ip after 0.5 hrs. The class given is functional, organism-based. Also noted: dose 65 mg/kg.
The subject of data set [15] is Mus musculus. Description: Neurotoxicity in CF1 albino mouse seizure model at 100 mg/kg, ip after 4 hrs by rototod test. Also on record: dose 100 mg/kg, route intraperitoneal. The conditions noted are these: in vivo. Format: toxicity, organism-based.
The nature of data set [16]: Neurotoxicity in ip dosed CF1 albino mouse seizure model after 4 hr by rototod test. The class given is toxicity, organism-based. The conditions noted are these: in vivo.
Data set [17] relates to Mus musculus. Description: Anticonvulsant activity in CF1 albino mouse assessed as protection against pentylenetetrazole-induced seizure at 100 mg/kg, ip after 1 hrs by scMET test. Format: functional, organism-based. Also noted: dose 100 mg/kg.
Data set [18] deals with Mus musculus. In words: Anticonvulsant activity against CF1 albino mouse seizure model assessed as protection at 100 mg/kg, ip after 1 hrs by 6 Hz psychomotor seizure test. The class given is functional, organism-based. Also on record: dose 100 mg/kg.
The test system of data set [19] is Mus musculus. Description: Anticonvulsant activity in CF1 albino mouse assessed as protection against pentylenetetrazole-induced seizure at 100 mg/kg, ip after 0.25 hrs by scMET test. The class given is functional, organism-based. Also noted: dose 100 mg/kg.
Data set [20] relates to Mus musculus. Description: Neurotoxicity in CF1 albino mouse seizure model at 100 mg/kg, ip after 0.25 hrs by rototod test. The class given is toxicity, organism-based. Also on record: dose 100 mg/kg, route intraperitoneal. Particulars: in vivo.
Data set [21] deals with Mus musculus. Description: Neurotoxicity in CF1 albino mouse seizure model at 100 mg/kg, ip after 0.5 hrs by rototod test. Format: toxicity, organism-based. Also on record: dose 100 mg/kg, route intraperitoneal. The conditions noted are these: in vivo.
Data set [22] has as its system Mus musculus. Description: Anticonvulsant activity against CF1 albino mouse seizure model assessed as protection at 100 mg/kg, ip after 0.5 hrs by 6 Hz psychomotor seizure test. The class given is functional, organism-based. Also noted: dose 100 mg/kg.
Data set [23] concerns Mus musculus. Description: Anticonvulsant activity in CF1 albino mouse assessed as protection against pentylenetetrazole-induced seizure at 200 mg/kg, ip after 4 hrs by scMET test. Format: functional. Particulars: route intraperitoneal.
Data set [24] concerns Mus musculus. Description: Anticonvulsant activity in CF1 albino mouse assessed as protection against Li-pilocarpine-induced seizure at 65 mg/kg, ip. The class given is functional, organism-based. Also noted: dose 65 mg/kg.
Data set [25] concerns Mus musculus. In words: Anticonvulsant activity against CF1 albino mouse seizure model assessed as protection at 100 mg/kg, ip after 0.25 hrs by 6 Hz psychomotor seizure test. Format: functional, organism-based. Also on record: dose 100 mg/kg.
Data set [26] relates to Mus musculus. In words: Anticonvulsant activity in CF1 albino mouse assessed as protection against pentylenetetrazole-induced seizure at 100 mg/kg, ip after 0.5 hrs by scMET test. The class given is functional, organism-based. Also on record: dose 100 mg/kg.
The test system of data set [27] is Mus musculus. In words: Anticonvulsant activity in CF1 albino mouse assessed as protection against maximal electroshock-induced seizures at 100 mg/kg, ip after 4 hrs. Format: functional.
The test system of data set [28] is Mus musculus. In words: Anticonvulsant activity against CF1 albino mouse seizure model assessed as protection at 100 mg/kg, ip after 4 hrs by 6 Hz psychomotor seizure test. Format: functional, organism-based. Also noted: dose 100 mg/kg.

The structures appear in SMILES notation. Activity calls are given as the source filed them. The calls are words filed in the database; no cut-off is given here.

For `CC(C)c1ccccc1O`, the 50% effect level with Mus musculus [1] (ED50) was put at a dose of 49.9 mg/kg. Moreover, the inhibition entry in the data set with Mus musculus [2] and in the data set with Mus musculus [14] was “inactive” throughout. The outcome in the data set with Mus musculus [3], with Mus musculus [5], in the data set with Mus musculus [7], with Mus musculus [8], in the data set with Mus musculus [9] and in the data set on Mus musculus [11] was inactive. Further, the Activity entry in the data set on Mus musculus [4], in the data set with Mus musculus [12] and in the data set with Mus musculus [15] was “Non-toxic” throughout. Further, the Time was found to be 4 h in the data set on Mus musculus [6] and 0.25 h in the data set with Mus musculus [13]. Also, the selectivity ratio in data set [10] was 2.8. This compound also displayed a TD50 at 4 h in data set [16] of 142 mg/kg.

As to `CC(C)c1cccc(O)c1`, the ED50 in the data set on Mus musculus [1] worked out at 53.8 mg/kg. Moreover, the result in the data set with Mus musculus [17], with Mus musculus [5], with Mus musculus [19], with Mus musculus [8], in the data set on Mus musculus [9] and with Mus musculus [11] was inactive. Besides, the outcome in the data set on Mus musculus [22] was inactive. Moreover, the outcome with Mus musculus [18] was Active. For the same compound, the Time came to 4 h in the data set on Mus musculus [6] and 0.25 h with Mus musculus [13]. For the same compound, the Activity entry in the data set with Mus musculus [20], in the data set with Mus musculus [21] and with Mus musculus [15] was “Non-toxic” each time. Further, in data set [10], the selectivity ratio turned out to be 2.4. The compound also yielded a TD50 at 4 h in data set [16] of 129 mg/kg.

Consider `NC(=O)N1c2ccccc2C=Cc2ccccc21` [CARBAMAZEPINE], for which the ED50 with Mus musculus [1] turned out to be 47.9 mg/kg.

`Cc1ccc(C(C)C)cc1O` [CARVACROL]: the ED50 in the data set on Mus musculus [1] is 35.8 mg/kg. In addition, the inhibition in vivo at 200 mg/kg in the data set on Mus musculus [23] came out at 40%. Moreover, the result with Mus musculus [3], in the data set on Mus musculus [19], in the data set with Mus musculus [24], in the data set with Mus musculus [25], in the data set with Mus musculus [26] and with Mus musculus [7] was inactive. For the same compound, the result in the data set on Mus musculus [8], with Mus musculus [9], with Mus musculus [11], in the data set with Mus musculus [22] and in the data set with Mus musculus [27] was inactive. Moreover, the Activity entry with Mus musculus [4], with Mus musculus [20], with Mus musculus [12], in the data set on Mus musculus [21] and in the data set on Mus musculus [15] was “Non-toxic” throughout. The results for the Time in the data set with Mus musculus [6] and in the data set with Mus musculus [13] were 6 h and 0.25 h, respectively. Moreover, the selectivity ratio in [10] came out at 5.3. In the data set on Mus musculus [27] (route intraperitoneal), the inhibition in vivo at 100 mg/kg was found to be 20%. The compound further yielded a TD50 at 4 h in data set [16] of 191 mg/kg.

In the data set on Mus musculus [1], `Cc1ccc(C(C)C)cc1` [P-CYMENE] displayed an ED50 of 51.3 mg/kg. Besides, the Activity result in the data set on Mus musculus [6] was “ND(toxic)”. For the same compound, the Time in the data set with Mus musculus [13] was found to be 0.25 h.

Regarding `CC(C)c1cccc(C(C)C)c1O` [PROPOFOL], the median effective dose (ED50) in the data set with Mus musculus [1] is 32.8 mg/kg. Further, in data set [10], the selectivity ratio came to 1.1.

In the data set with Mus musculus [1], `Cc1ccc(C(C)C)c(O)c1` [THYMOL] came in with an ED50 of 35.8 mg/kg. For the same compound, the Activity result with Mus musculus [4], in the data set on Mus musculus [20], in the data set with Mus musculus [12], in the data set with Mus musculus [21] and in the data set with Mus musculus [15] was “Non-toxic” each time. Besides, the result in the data set on Mus musculus [24], in the data set on Mus musculus [28] and in the data set on Mus musculus [7] was inactive. Besides, the result in the data set with Mus musculus [25] was Active. Further, the Time in the data set on Mus musculus [6] and in the data set on Mus musculus [13] was 0.25 h throughout. Moreover, the selectivity ratio in data set [10] was 3.4. Besides, the TD50 at 4 h in data set [16] stood at 121 mg/kg.

The compound `CN1C(=O)OC(C)(C)C1=O` [TRIMETHADIONE] had an ED50 with Mus musculus [1] of 218 mg/kg. In addition, the selectivity ratio in [10] is 3.8.
